Measured values taken from patent publication US20170246206A1, “Calcium Formate for Use as a Dietary Supplement” (Wisconsin Alumni Research Foundation, priority 1999, published 2017).
Where two headings read alike, the source gives them in different places.

Experiments:
[1] = From the text: Twenty 15-day-old weanling rats from Holzmann Company were placed on a an adequate synthetic diet called “Diet 11” (Suda, T., et al., J. Nutr. 100:1049-1052, 1970). This diet is supplemented with vitamins A, D, E and K as described in that paper. Therefore, these are vitamin D-sufficient animals.
The animals were then placed on a basal diet that contains 0.02% calcium, i.e. an extremely low calcium diet. These animals served as controls. Another group were placed on the same diet containing calcium formate, providing calcium at 0.25% of the diet. Another group was supplied calcium formate at 0.47% calcium in the diet, and another group was provided 0.47% calcium in the form of calcium carbonate. Growth of the animals reflects the ability of the animals to utilize calcium. […] 57:449-468 (1955).

Remark: listed apart in the source
[2] = 1% Ca formate in diet, 1 week on diet
[3] = 1% Ca formate in diet, 2 weeks on diet
[4] = 2% Ca formate in diet, 1 week on diet
[5] = 2% Ca formate in diet, 2 weeks on diet
[6] = 3% Ca formate in diet, 1 week on diet
[7] = 3% Ca formate in diet, 2 weeks on diet

## O=C([O-])[O-].[Ca+2] [Calcium Carbonate, calcium carbonate, reference compound]
[1]; 0.47% Ca in diet, day 7
  Average Body Weight ± S.E.M for 5 Rats: 48.6 ± 4.9 Grams
[1]; 0.47% Ca in diet, day 14
  Average Body Weight ± S.E.M for 5 Rats: 80.4 ± 10.4 Grams
[1]; 0.47% Ca in diet, day 21
  Average Body Weight ± S.E.M for 5 Rats: 126.2 ± 11 Grams

## O=C[O-].O=C[O-].[Ca+2] [Calcium Formate, calcium formate]
[2]
  Serum (mean ± SEM): 3.25 ± .31 mg %
  Weight: 229 ± 5.5
[3]
  Serum Ca (mean ± SEM): 14.0 ± .51 mg %
  Weight: 211 ± 3.8
[4]
  Serum (mean ± SEM): 2.50 ± .32 mg %
  Weight: 211 ± 6.3
[5]
  Serum (mean ± SEM): 2.7 ± .24 mg %
  Serum Ca (mean ± SEM): 12.8 ± .94 mg %
  Weight: 198 ± 5.2
2% vs 3% calcium formate in diet
  Difference in serum phosphorus between dose levels: little difference in serum phosphorus
[6]
  Serum (mean ± SEM): 2.5 ± .20 mg %
  Weight: 194 ± 6.5
[7]
  Serum (mean ± SEM): 2.9 ± 0.8 mg %
  Serum Ca (mean ± SEM): 12.9 ± 1.3 mg %
  Weight: 150 ± 8.0
All rats supplied with calcium formate (1-3% of diet)
  Serum phosphorus compared with control rats: less serum phosphorus than control rats
[1]; 0.25% Ca in diet, day 7
  Average Body Weight ± S.E.M for 5 Rats: 54.3 ± 4.0 Grams
[1]; 0.25% Ca in diet, day 14
  Average Body Weight ± S.E.M for 5 Rats: 84.6 ± 5.5 Grams
[1]; 0.25% Ca in diet, day 21
  Average Body Weight ± S.E.M for 5 Rats: 131.0 ± 5.7 Grams
[1]; 0.25% calcium as the formate
  Growth in comparison to other treatment groups: slightly better growth
[1]; 0.47% Ca in diet, day 7
  Average Body Weight ± S.E.M for 5 Rats: 51.0 ± 10.6 Grams
[1]; 0.47% Ca in diet, day 14
  Average Body Weight ± S.E.M for 5 Rats: 78.0 ± 19^ Grams
[1]; 0.47% Ca in diet, day 21
  Average Body Weight ± S.E.M for 5 Rats: 127 ± 11 Grams
[1]; compared with calcium carbonate
  Ability to supply calcium to experimental rats: at least equal to calcium carbonate
